For 1 molecule, IC50 results are on record in article PMC4102788, “Linking off-target kinase pharmacology to the differential cellular effects observed among PARP inhibitors” (Oncotarget, 2014).

One assay has as its target T1, human HIPK2 kinase (Homo sapiens, UniProt Q9H2X6).
T1 construct: purchased Cerep (CRO that ran the assay) 2915 (781-H2)
Kind of assay: Human HIPK2 kinase in vitro inhibition assay (Cerep, LANCE). Format: biochemical. To be noted: human recombinant enzyme, 10 µM ATP. The text has this: (§1) Rucaparib, veliparib and olaparib were purchased from Selleckchem. Kinase in vitro assays were perfomed at Cerep (www.cerep.fr) by measuring the phosphorylation of appropriate peptide substrates by human recombinant enzymes and using FRET as a detection method (a detailed description of each kinase assay is available in online supplementary data).
Human HIPK2 kinase in vitro inhibition assay
All details for the HIPK2 in vitro assay can be consulted in the Cerep Catalogue available online under references 2915 (781-H2): http://www.cerep.fr/cerep/users/pages/catalog/Affiche_CondExp_Test.asp?test=2915 Evaluation of the effects of compounds on the activity of the human HIPK2 quantified by measuring the phosphorylation of the substrate Ulight- […]
-amide (MBP) using a human recombinant enzyme and the […]
mixture is incubated for 30 min at room temperature. […] After 60 more min, the fluorescence transfer is measured at λex=337 nm, λem=620 nm and λem=665 nm using a microplate reader (Envision, Perkin Elmer). The enzyme activity is determined by dividing the signal measured at λem=665 nm by that measured at λem=620 nm (ratio). The results are expressed as a percent inhibition of the control enzyme activity. […]
A general note: Time-resolved FRET reads energy transfer from a long-lived donor to a nearby acceptor.

The target in the next assay is T2, human ALK kinase (Homo sapiens, UniProt Q9UM73).
T2 construct: purchased Cerep (CRO that ran the assay) 2678 (768-alk)
T2 sequence (Q9UM73 19-1620): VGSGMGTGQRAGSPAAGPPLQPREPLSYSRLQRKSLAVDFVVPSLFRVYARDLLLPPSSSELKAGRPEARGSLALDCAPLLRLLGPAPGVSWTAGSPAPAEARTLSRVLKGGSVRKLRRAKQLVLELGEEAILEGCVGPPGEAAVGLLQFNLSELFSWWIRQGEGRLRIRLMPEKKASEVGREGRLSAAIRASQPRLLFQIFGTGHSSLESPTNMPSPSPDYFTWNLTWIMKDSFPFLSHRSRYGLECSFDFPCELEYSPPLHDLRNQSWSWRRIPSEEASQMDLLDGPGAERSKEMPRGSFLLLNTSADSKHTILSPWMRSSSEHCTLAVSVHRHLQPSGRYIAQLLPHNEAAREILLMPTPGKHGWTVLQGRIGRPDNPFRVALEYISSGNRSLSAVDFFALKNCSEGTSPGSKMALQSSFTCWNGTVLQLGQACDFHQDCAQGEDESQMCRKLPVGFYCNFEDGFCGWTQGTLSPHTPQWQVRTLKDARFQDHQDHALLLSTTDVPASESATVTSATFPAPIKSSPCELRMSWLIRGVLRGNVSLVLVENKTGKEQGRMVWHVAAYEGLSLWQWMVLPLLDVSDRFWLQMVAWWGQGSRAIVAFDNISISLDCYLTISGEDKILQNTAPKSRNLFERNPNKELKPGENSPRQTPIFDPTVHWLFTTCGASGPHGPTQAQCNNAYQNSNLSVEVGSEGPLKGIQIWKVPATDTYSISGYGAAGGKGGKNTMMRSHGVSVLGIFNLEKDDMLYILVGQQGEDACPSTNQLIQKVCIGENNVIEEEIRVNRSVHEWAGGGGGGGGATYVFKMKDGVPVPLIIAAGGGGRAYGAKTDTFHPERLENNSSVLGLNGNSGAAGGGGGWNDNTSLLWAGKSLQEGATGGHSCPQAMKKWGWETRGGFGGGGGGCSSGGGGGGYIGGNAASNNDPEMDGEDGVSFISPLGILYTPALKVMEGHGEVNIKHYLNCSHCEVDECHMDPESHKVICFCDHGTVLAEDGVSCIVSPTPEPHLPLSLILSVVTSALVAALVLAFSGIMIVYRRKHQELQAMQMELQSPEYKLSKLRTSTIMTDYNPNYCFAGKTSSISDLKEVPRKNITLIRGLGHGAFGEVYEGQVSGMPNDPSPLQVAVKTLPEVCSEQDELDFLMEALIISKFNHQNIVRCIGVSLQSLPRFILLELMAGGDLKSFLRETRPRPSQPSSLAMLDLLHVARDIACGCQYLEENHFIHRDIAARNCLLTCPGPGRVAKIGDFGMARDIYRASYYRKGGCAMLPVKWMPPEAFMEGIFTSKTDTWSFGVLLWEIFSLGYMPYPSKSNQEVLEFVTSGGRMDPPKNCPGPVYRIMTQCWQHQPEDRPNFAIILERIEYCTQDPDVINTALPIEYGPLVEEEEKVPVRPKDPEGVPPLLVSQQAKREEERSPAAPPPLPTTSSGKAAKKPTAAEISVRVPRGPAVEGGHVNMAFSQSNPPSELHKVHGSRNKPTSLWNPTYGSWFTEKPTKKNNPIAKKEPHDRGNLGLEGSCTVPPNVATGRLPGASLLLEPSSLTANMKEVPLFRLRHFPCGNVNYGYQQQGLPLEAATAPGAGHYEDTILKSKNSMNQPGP
Kind of assay: Human ALK kinase in vitro inhibition assay (Cerep, LANCE). To be noted: human recombinant enzyme, 10 µM ATP. Format: biochemical.
Source text: as §1
Human CDC7 kinase in vitro inhibition assay
All details for the CDC7 in vitro assay can be consulted in the Cerep Catalogue available online under references 2764 (749-cdc7): […]
http://www.cerep.fr/cerep/users/pages/catalog/Affiche_CondExp_Test.asp?test=2764 Evaluation of the effects of compounds on the activity of the human CDC7/ASK quantified by measuring the phosphorylation of the substrate […]
Ulight-[…] […]
labeled with europium chelate is added. After 60 more min, the fluorescence transfer is measured at λex=337 nm, λem=620 nm and λem=665 nm using a microplate reader (Envision, Perkin Elmer). The enzyme activity is determined by dividing the signal measured at λem=665 nm by that measured at λem=620 nm (ratio). The results are expressed as a percent inhibition of the control enzyme activity. […]
ALK quantified by measuring the phosphorylation of the substrate Ulight- […]
europium chelate is added. After 60 more min, the fluorescence transfer is measured at […]
λex=337 nm, λem=620 nm and λem=665 nm using a microplate reader (Envision, […]

The structures appear in SMILES notation.

For orientation: IC50 means the midpoint of a concentration-inhibition curve.

T1 sequence (Q9H2X6 whole entry): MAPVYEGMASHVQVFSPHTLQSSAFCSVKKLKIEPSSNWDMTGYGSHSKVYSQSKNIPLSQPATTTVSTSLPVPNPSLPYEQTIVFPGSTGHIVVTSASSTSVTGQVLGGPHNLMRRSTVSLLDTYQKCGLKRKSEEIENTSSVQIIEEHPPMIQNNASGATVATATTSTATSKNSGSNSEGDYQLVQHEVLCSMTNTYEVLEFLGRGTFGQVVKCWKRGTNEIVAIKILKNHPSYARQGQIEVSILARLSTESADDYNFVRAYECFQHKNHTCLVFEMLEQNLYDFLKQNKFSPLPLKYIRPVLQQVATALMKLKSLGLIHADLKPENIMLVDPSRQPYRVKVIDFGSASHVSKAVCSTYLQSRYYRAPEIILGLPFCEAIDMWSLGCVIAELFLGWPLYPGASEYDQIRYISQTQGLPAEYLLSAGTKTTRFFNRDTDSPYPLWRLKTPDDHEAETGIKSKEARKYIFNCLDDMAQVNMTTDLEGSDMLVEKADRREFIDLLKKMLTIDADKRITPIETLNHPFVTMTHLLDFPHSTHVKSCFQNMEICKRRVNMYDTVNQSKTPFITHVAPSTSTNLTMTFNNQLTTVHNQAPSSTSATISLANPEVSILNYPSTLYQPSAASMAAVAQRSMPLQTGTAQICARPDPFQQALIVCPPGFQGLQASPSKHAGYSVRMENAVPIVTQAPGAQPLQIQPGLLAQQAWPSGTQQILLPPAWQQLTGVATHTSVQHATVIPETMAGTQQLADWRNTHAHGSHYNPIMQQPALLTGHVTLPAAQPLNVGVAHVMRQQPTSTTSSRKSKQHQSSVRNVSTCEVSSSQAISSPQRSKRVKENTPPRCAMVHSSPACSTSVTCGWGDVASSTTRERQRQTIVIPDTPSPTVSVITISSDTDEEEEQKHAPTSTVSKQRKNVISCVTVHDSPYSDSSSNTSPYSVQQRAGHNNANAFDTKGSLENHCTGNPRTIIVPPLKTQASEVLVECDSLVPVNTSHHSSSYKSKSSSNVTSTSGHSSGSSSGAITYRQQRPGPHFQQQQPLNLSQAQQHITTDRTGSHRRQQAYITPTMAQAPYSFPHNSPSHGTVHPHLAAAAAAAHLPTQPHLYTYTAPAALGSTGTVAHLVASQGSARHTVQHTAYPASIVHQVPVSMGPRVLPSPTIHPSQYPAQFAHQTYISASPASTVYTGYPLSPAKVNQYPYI

Turning to `CNCc1ccc(-c2[nH]c3cc(F)cc4c3c2CCNC4=O)cc1` [rucaparib], the figures for the IC50 on human HIPK2 kinase and at human ALK kinase were 4.4 µM and 18 µM, respectively.
